Earlier results in patent publication US20260345609A1, “METHODS FOR PROMOTING PERSISTENCE OF CELL THERAPY” (Legend Biotech Ireland Limited, priority 2022, published 2026).

settings: Short infusion; cited from earlier work

Question: With `Nc1ccn([C@@H]2O[C@H](CO)[C@@H](O)C2(F)F)c(=O)n1` [Gemcitabine] as the compound, how does the Half-life read?
Answer: Short infusion: 32-94 min;

same assay, conditions: human, in vivo; cited from earlier work

Question: With `Nc1nc(Cl)nc2c1ncn2[C@H]1C[C@H](O)[C@@H](CO)O1` [Cladribine] as the compound, how does the Half-life read?
Answer: 10 h

Question: For `CN(C)/N=N/c1[nH]cnc1C(N)=O` [Dacarbazine], which Half-life is on record?
Answer: 5 h

Question: Which Half-life does the source give for `COc1cccc2c1C(=O)c1c(O)c3c(c(O)c1C2=O)C[C@@](O)(C(=O)CO)C[C@@H]3O[C@H]1C[C@H](N)[C@H](O)[C@H](C)O1` [Doxorubicin] here?
Answer: 1 to 3 h

Question: With `O=c1[nH]cc(F)c(=O)[nH]1` [Fluorouracil] as the compound, how does the Half-life read?
Answer: 0.267 h

Question: Which Half-life does the source give for `N[C@@H]1CCCC[C@H]1N.[Pt+2]` [Oxaliplatin] here?
Answer: 0.167 to 0.417 h

Question: For `CC(=O)O[C@H]1C(=O)[C@@]2(C)[C@H]([C@H](OC(=O)c3ccccc3)[C@]3(O)C[C@H](OC(=O)[C@H](O)[C@@H](NC(=O)c4ccccc4)c4ccccc4)C(C)=C1C3(C)C)[C@]1(OC(C)=O)CO[C@@H]1C[C@@H]2O` [Paclitaxel], which Half-life is on record?
Answer: 5.8 h

Question: For `O=P1(N(CCCl)CCCl)NCCCO1` (centres unmarked) [cyclophosphamide], which Half-life is on record?
Answer: 3 to 12 h

Question: Which Half-life does the source give for `Nc1nc(F)nc2c1ncn2[C@@H]1O[C@H](CO)[C@@H](O)[C@@H]1O` [fludarabine] here?
Answer: 20 h

Question: For `CC[C@]1(O)C[C@H]2CN(CCc3c([nH]c4ccccc34)[C@@](C(=O)OC)(c3cc4c(cc3OC)N(C)[C@H]3[C@@](O)(C(=O)OC)[C@H](OC(C)=O)[C@]5(CC)C=CCN6CC[C@]43[C@@H]65)C2)C1` [vinblastine], which Half-life is on record?
Answer: 24.8 h

same assay, conditions: long infusion; cited from earlier work

Question: With `Nc1ccn([C@@H]2O[C@H](CO)[C@@H](O)C2(F)F)c(=O)n1` [Gemcitabine] as the compound, how does the Half-life read?
Answer: long infusion: 245-638 min
